# Data: patent US11013740B2, “Histone deacetylase 6 selective inhibitors for the treatment of cisplatin-induced peripheral neuropathy” (REGENACY PHARMACEUTICALS, LLC, priority 2015, dated 2021)
# What was measured:
# Cox IV, SDHA and VDAC = test: Western blot of mitochondrial marker proteins in tibial nerves; assay type: in vivo; settings: cisplatin-treated mice, 11 injections of compound
# Method: Tibial nerves retrieved from the XF24 assay plate were used for western blot analysis of levels of acetylated α-tubulin and mitochondrial proteins cytochrome c oxidase subunit IV (Cox IV), succinate dehydrogenase complex subunit A (SDHA) and voltage-dependent anion channel (VDAC). Tissues were homogenized in RIPA buffer (50 mM Tris-HCl, pH 7.5, 500 mM NaCl, 2.5 mM MgCl2, 1% NP-40, 10% glycerol) containing proteinase inhibitors by sonication and 10 μg of protein was separated by SDS/PAGE and transferred to PVDF membrane for immunoblot analyses. The membranes were blocked with 5% non-fat dry milk in PBST (phosphate-buffered saline containing 0.1% Tween 20) and probed with primary antibodies recognizing acetylated lysine (Rabbit monoclonal; Abcam, Cambridge, United Kingdom), α-tubulin (Rabbit polyclonal; Cell Signaling Technology, Danvers, Mass.), Cox IV (Mouse monoclonal; Life Technologies, Carlsbad, Calif.), SDHA (Rabbit polyclonal; Cell Signaling Technology, Danvers, Mass.) and VDAC (Rabbit polyclonal; Cell Signaling Technology, Danvers, Mass.) followed by HRP-conjugated anti-mouse, anti-rabbit, or anti-β-actin antibodies (Jackson Laboratory, Bar Harbor, Me.). […] The images were acquired using ImageQuant LAS 4000 (GE Healthcare Life Sciences, Little Chalfont, United Kingdom) and densitometrically analyzed using Image J software.
# [1] = system: cisplatin-induced numbness; test: Adhesive removal test (ART) for numbness; assay type: in vivo, mice; settings: treatment starting after two rounds of cisplatin; tested in week 5
# Method: To quantify signs of cisplatin-induced pain, the von Frey test was used (see below) which measures the decrease in threshold to induce a withdrawal response to a mechanical stimulus (hyperalgesia, one of the characteristics of CIPN). To assess cisplatin-induced numbness, the adhesive removal test (ART) was used. The time it took for the mouse to have a behavioral response to the patch (i.e. shaking or attempted removal) was recorded as a measure of sensory deficit or numbness. To determine if behavioral changes were due to altered general activity or motor function, the locomotor activity (LMA) test and the rotarod test was used. For LMA mice were placed in an open-field testing cage and movement was measured for 5 minutes. For the rotarod, mice were trained for two days and then tested on the rotarod (with increasing speeds) for 5 minutes. Time on the rotarod was recorded. […] The time it took for the mouse to display a behavioral response to the patch (i.e. shaking or attempted removal) was recorded. […]
# GFAP = GFAP immunofluorescence of lumbar spinal cord dorsal horn (astrocyte activation); assay type: in vivo, mice; settings: two rounds of cisplatin, then 3 doses of 10 mg/kg
# From the text: For quantification of astrocyte and microglia activation, lumbar spinal cords were collected on day 22. This collection day was after completion of cisplatin treatment and 3 injections of compound 001. […] Spinal cords were processed and stained with antibodies specific for GFAP and Iba-1. Images were captured under blinded conditions from the lumbar dorsal horn using a Leica SPE confocal microscope (Leica Microsystems, Buffalo Grove, Ill.).
# For assessing astrocyte activation, paraformaldehyde fixed frozen 6 μm sections of lumbar spinal cord (L1-L6) were incubated with an antibody against glial fibrillary acidic protein (GFAP) (Rabbit; Abcam, Cambridge, Mass.) followed by Alexa-594-goat anti-rabbit IgG (Life Technologies, Carlsbad, Calif.) as described (Zhang H, et al. Evidence that spinal astrocytes but not microglia contribute to the pathogenesis of Paclitaxel-induced painful neuropathy. J. Pain, 2012; 13(3):293-303). Images were captured using a Leica SPE confocal microscope (Leica Microsystems, Buffalo Grove, Ill.). GFAP staining intensity was quantified using Image J software for percent positive GFAP staining in which intensity thresholds were maintained between samples. All immunofluorescence analysis were done by an experimenter blinded to the treatment groups.
smiles,measurement,setting,value
O=C(NO)c1cnc(NC2(c3ccccc3)CCC(F)(F)CC2)nc1 [compound 001],Cox IV level in tibial nerve,"Cox IV, SDHA and VDAC",normalized Cox IV levels in the tibial nerve
same,time to behavioral response to adhesive patch (numbness),[1],normalized the response time in this test
same,GFAP expression in dorsal horn of spinal cord,GFAP,normalized GFAP expression to levels of saline-treated animals
